# Results as given in PMC10537105, “Derivatives Incorporating Acridine, Pyrrole, and Thiazolidine Rings as Promising Antitumor Agents” (Molecules, 2023).
# Read-outs that look alike come from different tables or passages of the source.
# Legend:
# COS-7 = experiment: MTT assay, COS-7 normal cells; type: cell-based, monkey; conditions: normal cell line, read-out: IC50 values ± SD, COS-7
# Description: (§1) The impact of acridine spiro derivatives 6–10 (Figure 13) on the metabolic activity of various tumor cell lines HCT-116 (human colorectal carcinoma), Jurkat (human leukemia cells), HeLa (human cervical adenocarcinoma), MDA-MB-231, and MCF-7 (human breast adenocarcinoma), and normal cell lines COS-7 (monkey kidney cells) and BJ-5ta (skin fibroblasts) was investigated using the MTT assay. This assay measures the conversion of yellow 3-(4,5-dimethylthiazol-2-yl)-2,5-diphenyltetrazolium bromide (MTT) to insoluble purple formazan by metabolically active cells. The antiproliferative activities of the tested compounds were determined based on the results from the MTT assay, and the inhibitory concentration values (IC50) are presented in Table 5.
# (§2) The human cancer cell lines employed in this study were sourced from reputable institutions, including the American Type Culture Collection (ATCC; Manassas, VA, USA) and the European Collection of Authenticated Cell Cultures (ECACC, Salisbury, UK). Specifically, HeLa (93021013, human cervical adenocarcinoma), HCT116 (CCL-247TM, human colorectal carcinoma), and Jurkat (88042803, human leukemic T-cell lymphoma) were cultured in RPMI 1640 medium (Biosera, Kansas City, MO, USA). In contrast, MCF-7 (HTB-22TM, human breast adenocarcinoma, ER+), MDA-MB-231 (HTB-26TM, human breast adenocarcinoma, ER−), and COS-7 (CRL-1651TM, kidney fibroblasts) were nurtured in high-glucose Dulbecco’s Modified Eagle Medium (DMEM) supplemented with sodium pyruvate (Biosera). Furthermore, BJ-5ta (CRL-4001TM, human dermal fibroblasts) was cultured in a composite medium of high-glucose DMEM and M199 (4:1) (Biosera), supplemented with Hygromycin B (0.01 mg/mL; Merck, Darmstadt, Germany). All culture media were enriched with a 10% fetal bovine serum (FBS; Gibco, Thermo Scientific, Rockford, IL, USA) and an antibiotic/antimycotic solution (Merck) to ensure optimal growth conditions. The cells were meticulously maintained within a humidified environment containing 5% CO2 at 37 °C. Regular screenings for mycoplasma contamination were conducted using Hoechst 33342 staining (Merck), confirming the integrity of the cell lines.
# (§3) To assess the antiproliferative impact of the synthesized compounds 6–10, their half-maximal inhibitory concentration (IC50) and the MTT colorimetric assay were employed. MDA-MB-231 and MCF-7 cells were seeded into 96-well microplates (SARSTEDT, Nümbrecht, Germany) at a density of 5 × 10^3 cells per well. After 24 h of cell seeding, various concentrations (100, 50, and 10 µmol/L) of acridine derivatives 6–10 were introduced, alongside cisplatin (utilized as a reference) at concentrations of 5, 10, 20, 50, and 100 µmol/L. Subsequent to 24, 48, and 72 h of treatment, the cells in each well underwent incubation with MTT (5 mg/mL, Sigma-Aldrich Chemie, Steinheim, Germany) for 4 h at 37 °C in the dark. During this period, mitochondrial oxidoreductases metabolized MTT, forming insoluble formazan. Following this, 100 µL of SDS (10% […]) was added to dissolve the formazan crystals, and the cells were incubated for an additional 12 h. Absorbance at 540 nm was measured using the automated Cytation™ 3 Cell Imaging Multi-Mode Reader (Biotek, Winooski, VT, USA). Each test was performed in triplicate, and three independent experiments were conducted to ensure precision and reliability.
# Jurkat = experiment: MTT assay, Jurkat cells; type: cell-based, human; conditions: MTT, 72 h of incubation, read-out: IC50 values ± SD, Jurkat
# Description: as §1, §2, §3
# MCF-7 = experiment: MTT assay, MCF-7 cells; type: cell-based, human; conditions: read-out: IC50 values ± SD, MCF-7
# Description: as §1, §2, §3
# HeLa = experiment: MTT assay, HeLa cells; type: cell-based, human; conditions: 72 h of incubation, read-out: IC50 values ± SD, HeLa
# Description: as §1, §2, §3
# BJ-5ta = experiment: MTT assay, BJ-5ta normal fibroblasts; type: cell-based, human; conditions: 72 h of incubation, normal cell line, read-out: IC50 values ± SD, BJ-5ta
# Description: as §1, §2, §3
# MDA-MB-231 = experiment: MTT assay, MDA-MB-231 cells; type: cell-based, human; conditions: read-out: IC50 values ± SD, MDA-MB-231
# Description: as §1, §2, §3
# HCT-116 = experiment: MTT assay, HCT-116 cells; type: cell-based, human; conditions: MTT, 72 h of incubation, read-out: IC50 values ± SD, HCT-116
# Description: as §1, §2, §3
# [1] = Primates, COS-7, 72 h of incubation
# [2] = Homo sapiens, MCF7, 72 h of incubation
# [3] = Homo sapiens, MDA-MB-231, 72 h of incubation
SMILES,IC50 (COS-7; [1]) [µM],"IC50 (Jurkat; Homo sapiens, Jurkat) [µM]",IC50 (MCF-7; [2]) [µM],"IC50 (HeLa; Homo sapiens, HeLa) [µM]","IC50 (BJ-5ta; Homo sapiens, Fibroblast) [µM]",IC50 (MDA-MB-231; [3]) [µM],melting point,"IC50 (HCT-116; Homo sapiens, HCT-116) [µM]",IC50 (COS-7; 72 h of incubation) [µM],IC50 (Jurkat) [µM],IC50 (MCF-7; 72 h of incubation) [µM],IC50 (HeLa) [µM],IC50 (BJ-5ta) [µM],IC50 (MDA-MB-231; 72 h of incubation) [µM],IC50 (HCT-116) [µM]
"N#CC1=CC2(c3ccccc3Nc3ccccc32)N(NC(=S)Nc2ccccc2)C1=O [6a, 3-{4′-Cyano-5′-oxo-1′,5′-dihydro-10H-spiro[acridine-9,2′-pyrrol]-1′-yl}-1-phenylthiourea]",> 100,11.6 ± 4.3,> 100,67.2 ± 8.65,92.2 ± 1.6,> 100,194 to 195 °C (dec.),14.3 ± 5.09,–,–,–,–,–,–,–
"COc1ccc(NC(=S)NN2C(=O)C(C#N)=CC23c2ccccc2Nc2ccccc23)cc1 [6b, 3-{4′-Cyano-5′-oxo-1′,5′-dihydro-10H-spiro[acridine-9,2′-pyrrol]-1′-yl}-1-(4-methoxyphenyl)thiourea]",> 100,39.9 ± 5.19,> 100,> 100,> 100,> 100,–,41.5 ± 4.77,–,–,–,–,–,–,–
"N#CC1=CC2(c3ccccc3Nc3ccccc32)N(NC(=S)Nc2ccc(F)cc2)C1=O [6d, 3-{4′-Cyano-5′-oxo-1′,5′-dihydro-10H-spiro[acridine-9,2′-pyrrol]-1′-yl}-1-(4-fluorophenyl)thiourea]",> 100,31.8 ± 5.65,> 100,> 100,> 100,> 100,197 to 199 °C (dec.),18.9 ± 4.71,–,–,–,–,–,–,–
"N#CC1=CC2(c3ccccc3Nc3ccccc32)N(/N=C2\SCC(=O)N2c2ccccc2)C1=O [7a, 5′-Oxo-1′-{[(2Z)-4-oxo-3-phenyl-1,3-thiazolidin-2-ylidene]amino}-1′,5′-dihydro-10H-spiro[acridine-9,2′-pyrrole]-4′-carbonitrile]",> 100,> 100,21.62 ± 0.1,51.2 ± 3.32,> 100,> 100,241 to 243 °C (dec.),41.3 ± 2.3,–,–,–,–,–,–,–
"COc1ccc(N2C(=O)CS/C2=N\N2C(=O)C(C#N)=CC23c2ccccc2Nc2ccccc23)cc1 [7b, 1′-{[(2Z)-3-(4-Methoxyphenyl)-4-oxo-1,3-thiazolidin-2-ylidene]amino}-5′-oxo-1′,5′-dihydro-10H-spiro[acridine-9,2′-pyrrole]-4′-carbonitrile]",> 100,> 100,30.8 ± 5.22,> 100,> 100,> 100,207 to 210 °C (dec.),> 100,–,–,–,–,–,–,–
"COc1cccc(N2C(=O)CS/C2=N\N2C(=O)C(C#N)=CC23c2ccccc2Nc2ccccc23)c1 [7c, 1′-{[(2Z)-3-(3-Methoxyphenyl)-4-oxo-1,3-thiazolidin-2-ylidene]amino}-5′-oxo-1′,5′-dihydro-10H-spiro[acridine-9,2′-pyrrole]-4′-carbonitrile]",55.2 ± 5.38,22.1 ± 0.43,45.14 ± 0.04,54 ± 0.72,38 ± 1.44,39.7 ± 2.4,217 to 220 °C (dec.),24.4 ± 1.31,–,–,–,–,–,–,–
"N#CC1=CC2(c3ccccc3Nc3ccccc32)N(/N=C2\SCC(=O)N2c2ccc(F)cc2)C1=O [7d, 1′-{[(2Z)-3-(4-Fluorophenyl)-4-oxo-1,3-thiazolidin-2-ylidene]amino}-5′-oxo-1′,5′-dihydro-10H-spiro[acridine-9,2′-pyrrole]-4′-carbonitrile]",> 100,> 100,32.5 ± 6.5,62.5 ± 14,> 100,> 100,249 to 252 °C (dec.),46.6 ± 2.66,–,–,–,–,–,–,–
"N#CC1=CC2(c3ccccc3Nc3ccccc32)N(/N=C2\SCC(=O)N2c2ccc([N+](=O)[O-])cc2)C1=O [7e, 1′-{[(2Z)-3-(4-Nitrophenyl)-4-oxo-1,3-thiazolidin-2-ylidene]amino}-5′-oxo-1′,5′-dihydro-10H-spiro[acridine-9,2′-pyrrole]-4′-carbonitrile]",> 100,35.5 ± 2.31,> 100,> 100,> 100,> 100,244 to 247 °C (dec.),46.2 ± 2.02,–,–,–,–,–,–,–
"CCOC(=O)/C=C1\S/C(=N\N2C(=O)C(C#N)=CC23c2ccccc2Nc2ccccc23)N(c2ccc(OC)cc2)C1=O [8b, Ethyl 2-[(2Z,5Z)-2-({4′-cyano-5′-oxo-1′,5′-dihydro-10H-spiro[acridine-9,2′-pyrrol]-1′-yl}imino)-3-(4-methoxyphenyl)-4-oxo-1,3-thiazolidin-5-ylidene]acetate]",11.5 ± 1.74,5.67 ± 0.03,12.8 ± 4.24,16.9 ± 3.5,6.82 ± 0.24,7.43 ± 0.72,–,5.37 ± 0.01,–,–,–,–,–,–,–
"CCOC(=O)/C=C1\S/C(=N\N2C(=O)C(C#N)=CC23c2ccccc2Nc2ccccc23)N(c2ccc(F)cc2)C1=O [8d, Ethyl 2-[(2Z,5Z)-2-({4′-cyano-5′-oxo-1′,5′-dihydro-10H-spiro[acridine-9,2′-pyrrol]-1′-yl}imino)-3-(4-fluorophenyl)-4-oxo-1,3-thiazolidin-5-ylidene]acetate]",9.45 ± 0.24,5.64 ± 0.09,8.52 ± 0.79,5.97 ± 0.15,7.32 ± 0.35,7.85 ± 0.97,269 to 272 °C (dec.),5.46 ± 0.02,–,–,–,–,–,–,–
"N.N.[Cl][Pt][Cl] [Cisplatin, cisplatin, reference compound]",–,–,–,–,–,–,–,–,24.6 ± 1.4,8.18 ± 1.6,26.5 ± 3.19,35.4 ± 2.5,36 ± 1.87,7.1 ± 0.9,12.4 ± 2.1
